Molecular target: recombinant Human Phosphodiesterase B2 (PDE4B2) (Homo sapiens, UniProt Q07343)
Experiment: Human Phosphodiesterase B2 Radiometric Assay
Format: biochemical
Conditions: 0.1 μg/mL recombinant PDE4B2; preincubated at 30 C for 30 min; [3H]cyclic AMP 8 nM, stopped after 20 min; yttrium silicate SPA beads; read-out: PDE4B2 pIC50 (converted)
Method in brief: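 Compounds preincubated 30 min at 30 C with 0.1 μg/mL recombinant PDE4B2 in 50 mM HEPES pH 7.5, 8.3 mM MgCl2, 1.7 mM EGTA, 0.01% Brij 35.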

Sequence of recombinant Human Phosphodiesterase B2 (PDE4B2) (Q07343 1-564 isoform Q07343-2): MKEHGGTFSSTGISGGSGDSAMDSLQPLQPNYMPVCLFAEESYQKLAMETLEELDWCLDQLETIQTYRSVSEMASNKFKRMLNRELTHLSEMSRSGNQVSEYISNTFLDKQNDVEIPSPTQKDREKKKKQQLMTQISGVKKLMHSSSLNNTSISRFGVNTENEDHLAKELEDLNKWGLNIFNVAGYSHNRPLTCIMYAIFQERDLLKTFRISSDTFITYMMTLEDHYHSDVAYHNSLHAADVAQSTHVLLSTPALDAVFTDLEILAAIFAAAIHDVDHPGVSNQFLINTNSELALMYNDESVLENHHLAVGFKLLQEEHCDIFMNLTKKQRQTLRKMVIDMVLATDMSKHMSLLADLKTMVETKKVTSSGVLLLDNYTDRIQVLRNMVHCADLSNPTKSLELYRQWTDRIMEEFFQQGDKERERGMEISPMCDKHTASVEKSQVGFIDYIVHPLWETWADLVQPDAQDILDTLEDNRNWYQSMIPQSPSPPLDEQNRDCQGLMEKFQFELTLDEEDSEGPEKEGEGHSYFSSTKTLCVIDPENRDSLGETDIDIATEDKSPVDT

IC50 [nM] | SMILES
0.0316 | Cc1csc(C(=O)N[C@H]2CC[C@@H](NC(=O)c3cc(F)cnc3Oc3cccc(-c4ccc(O)c(CN5C[C@@H](C)N[C@@H](C)C5)c4)c3)CC2)n1 [Example 88, N-((1s,4s)-4-(2-(3′-(((3S,5R)-3,5-dimethylpiperazin-1-yl)methyl)-4′-hydroxybiphenyl-3-yloxy)-5-fluoronicotinamido)cyclohexyl)-4-methylthiazole-2-carboxamide]
0.0631 | Cc1nc(C(=O)N[C@H]2CC[C@@H](NC(=O)c3cc(F)cnc3Oc3cccc(-c4ccc(CN5CCNCC5)cc4O)c3)CC2)cs1 [Example 57, N-((1s,4s)-4-(5-fluoro-2-(2′-hydroxy-4′-(piperazin-1-ylmethyl)biphenyl-3-yloxy)nicotinamido)cyclohexyl)-2-methylthiazole-4-carboxamide]
0.0501 | C[C@@H]1CN(CCCc2ccc(-c3cccc(Oc4ncc(F)cc4C(=O)N[C@H]4CC[C@@H](NC(=O)c5cc6n(n5)CCCO6)CC4)c3)cc2)C[C@H](C)N1 [Example 168, N-((1s,4s)-4-(2-(4′-(3-((3S,5R)-3,5-Dimethylpiperazin-1-yl)propyl)biphenyl-3-yloxy)-5-fluoronicotinamido)cyclohexyl)-6,7-dihydro-5H-pyrazolo[5,1-b][1,3]oxazine-2-carboxamide]
0.126 | O=C(N[C@H]1CC[C@@H](NC(=O)c2cc(F)cnc2Oc2cccc(-c3ccc(CN4CCNCC4)cc3)c2)CC1)c1cn2c(n1)CCCC2 [Example 1, N-((1s,4s)-4-(5-fluoro-2-(4′-(piperazin-1-ylmethyl)biphenyl-3-yloxy)nicotinamido)cyclohexyl)-5,6,7,8-tetrahydroimidazo[1,2-a]pyridine-2-carboxamide]
0.0251 | C[C@@H]1CN(Cc2ccc(-c3cccc(Oc4ncc(F)cc4C(=O)N[C@H]4CC[C@@H](NC(=O)c5cc6ccccn6n5)CC4)c3)cc2)C[C@H](C)N1 [Example 71, N-((1s,4s)-4-(2-(4′-(((3S,5R)-3,5-dimethylpiperazin-1-yl)methyl)biphenyl-3-yloxy)-5-fluoronicotinamido)cyclohexyl)pyrazolo[1,5-a]pyridine-2-carboxamide]
0.1 | C[C@@H]1CN(Cc2ccc(-c3cccc(Oc4ncc(F)cc4C(=O)N[C@H]4CC[C@@H](NC(=O)c5cn6cc(F)ccc6n5)CC4)c3)cc2)C[C@H](C)N1 [Example 67, N-((1s,4s)-4-(2-(4′-(((3S,5R)-3,5-dimethylpiperazin-1-yl)methyl)biphenyl-3-yloxy)-5-fluoronicotinamido)cyclohexyl)-6-fluoroimidazo[1,2-a]pyridine-2-carboxamide]
0.02 | O=C(N[C@H]1CC[C@@H](NC(=O)c2cc(F)cnc2Oc2cccc(-c3ccc(O)cc3CN3CCCOCC3)c2)CC1)c1cn2cc(F)ccc2n1 [Example 13, N-((1s,4s)-4-(2-(2′-((1,4-oxazepan-4-yl)methyl)-4′-hydroxybiphenyl-3-yloxy)-5-fluoronicotinamido)cyclohexyl)-6-fluoroimidazo[1,2-a]pyridine-2-carboxamide]
0.0794 | Cc1cccc2nc(C(=O)N[C@H]3CC[C@@H](NC(=O)c4cc(F)cnc4Oc4cccc(-c5ccc(C(=O)O)cc5CN5CCOCC5)c4)CC3)cn12 [Example 59, 3′-(5-fluoro-3-((1s,4s)-4-(5-methylimidazo[1,2-a]pyridine-2-carboxamido)cyclohexylcarbamoyl)pyridin-2-yloxy)-2-(morpholinomethyl)biphenyl-4-carboxylic acid]
0.0316 | Cc1csc(C(=O)N[C@H]2CC[C@@H](NC(=O)c3cc(F)cnc3Oc3cccc(-c4ccc(CN5C[C@@H](C)N[C@@H](C)C5)cc4CN4CCOC[C@@H]4C)c3)CC2)n1 [Example 194, N-((1s,4s)-4-(2-(4′-(((3S,5R)-3,5-dimethylpiperazin-1-yl)methyl)-2′-(((S)-3-methylmorpholino)methyl)biphenyl-3-yloxy)-5-fluoronicotinamido)cyclohexyl)-4-methylthiazole-2-carboxamide]
0.0398 | O=C(N[C@H]1CC[C@@H](NC(=O)c2cc(F)cnc2Oc2cccc(-c3ccc(CCCN4CCNCC4)cc3)c2)CC1)c1cc2ccccn2n1 [Example 132, N-((1s,4s)-4-(5-fluoro-2-(4′-(3-(piperazin-1-yl)propyl)biphenyl-3-yloxy)nicotinamido)cyclohexyl)pyrazolo[1,5-a]pyridine-2-carboxamide]
0.0316 | Cc1ccc(O)c(C(=O)N[C@H]2CC[C@@H](NC(=O)c3cc(F)cnc3Oc3cccc(-c4ccc(O)cc4CN4CCCOCC4)c3)CC2)c1 [Example 16, 2-(2′-((1,4-oxazepan-4-yl)methyl)-4′-hydroxybiphenyl-3-yloxy)-5-fluoro-N-((1s,4s)-4-(2-hydroxy-5-methylbenzamido)cyclohexyl)nicotinamide]
0.0501 | Cc1cccc2nc(C(=O)N[C@H]3CC[C@@H](NC(=O)c4cc(F)cnc4Oc4cccc(-c5ccc(O)cc5CN(C)C)c4)CC3)cn12 [Example 11, N-((1s,4s)-4-(2-(2′-((dimethylamino)methyl)-4′-hydroxybiphenyl-3-yloxy)-5-fluoronicotinamido)cyclohexyl)-5-methylimidazo[1,2-a]pyridine-2-carboxamide]
0.02 | CC(C)c1nc(C(=O)N[C@H]2CC[C@@H](NC(=O)c3cc(F)cnc3Oc3cccc(-c4ccc(O)cc4CN4CCOCC4)c3)CC2)cs1 [Example 39, N-((1s,4s)-4-(5-fluoro-2-(4′-hydroxy-2′-(morpholinomethyl)biphenyl-3-yloxy)nicotinamido)cyclohexyl)-2-isopropylthiazole-4-carboxamide]
0.0126 | C[C@@H]1CN(Cc2ccc(-c3cccc(Oc4ncc(F)cc4C(=O)N[C@H]4CC[C@@H](NC(=O)c5cccc6[nH]cnc56)CC4)c3)c(CN3CCSCC3)c2)C[C@H](C)N1 [Example 202, N-((1s,4s)-4-(2-(4′-(((3S,5R)-3,5-dimethylpiperazin-1-yl)methyl)-2′-(thiomorpholinomethyl)biphenyl-3-yloxy)-5-fluoronicotinamido)cyclohexyl)-1H-benzo[d]imidazole-4-carboxamide]
0.0398 | Cc1cc(C(=O)N[C@H]2CC[C@@H](NC(=O)c3cc(F)cnc3Oc3cccc(-c4ccc(CCCNCCCO)cc4)c3)CC2)nn1C [Example 152, N-((1s,4s)-4-(1,5-dimethyl-1H-pyrazole-3-carboxamido)cyclohexyl)-5-fluoro-2-(4′-(3-(3-hydroxypropylamino)propyl)biphenyl-3-yloxy)nicotinamide]
0.0158 | C[C@H]1COCCN1Cc1cc(CN2CCCN(CCO)CC2)ccc1-c1cccc(Oc2ncc(F)cc2C(=O)N[C@H]2CC[C@@H](NC(=O)c3cccc4[nH]cnc34)CC2)c1 [Example 180, N-((1s,4s)-4-(5-Fluoro-2-(4′-((4-(2-hydroxyethyl)-1,4-diazepan-1-yl)methyl)-2′-(((S)-3-methylmorpholino)methyl)biphenyl-3-yloxy)nicotinamido)cyclohexyl)-1H-benzo[d]imidazole-4-carboxamide]
0.0251 | Cc1nc(C(=O)N[C@H]2CC[C@@H](NC(=O)c3cc(F)cnc3Oc3cccc(-c4ccc(O)c(CN5C[C@@H](C)N[C@@H](C)C5)c4)c3)CC2)cs1 [Example 68, N-((1s,4s)-4-(2-(3′-(((3R,5S)-3,5-dimethylpiperazin-1-yl)methyl)-4′-hydroxybiphenyl-3-yloxy)-5-fluoronicotinamido)cyclohexyl)-2-methylthiazole-4-carboxamide]
0.0631 | C[C@@H]1CN(CCCc2cccc(-c3cccc(Oc4ncc(F)cc4C(=O)N[C@H]4CC[C@@H](NC(=O)c5cc6n(n5)CCC6)CC4)c3)c2)C[C@H](C)N1 [Example 172, N-((1s,4s)-4-(2-(3′-(3-((3S,5R)-3,5-Dimethylpiperazin-1-yl)propyl)biphenyl-3-yloxy)-5-fluoronicotinamido)cyclohexyl)-5,6-dihydro-4H-pyrrolo[1,2-b]pyrazole-2-carboxamide]
0.0631 | Cc1cccc2nc(C(=O)N[C@H]3CC[C@@H](NC(=O)c4cc(F)cnc4Oc4cccc(-c5ccc(CN6C[C@@H](C)N[C@@H](C)C6)cc5CN5CCOCC5)c4)CC3)cn12 [Example 123, N-((1s,4s)-4-(2-(4′-(((3S,5R)-3,5-dimethylpiperazin-1-yl)methyl)-2′-(morpholinomethyl)biphenyl-3-yloxy)-5-fluoronicotinamido)cyclohexyl)-5-methylimidazo[1,2-a]pyridine-2-carboxamide]
0.0501 | Cc1cc(C(=O)N[C@H]2CC[C@@H](NC(=O)c3cc(F)cnc3Oc3cccc(-c4ccc(CN(C)C)cc4CN4CCOCC4)c3)CC2)nn1C [Example 120, N-((1s,4s)-4-(1,5-dimethyl-1H-pyrazole-3-carboxamido)cyclohexyl)-2-(4′-((dimethylamino)methyl)-2′-(morpholinomethyl)biphenyl-3-yloxy)-5-fluoronicotinamide]
0.0251 | Cc1cc(C)n2ncc(C(=O)N[C@H]3CC[C@@H](NC(=O)c4cc(F)cnc4Oc4cccc(-c5ccc(CN6C[C@@H](C)N[C@@H](C)C6)cc5CN5CCOC[C@@H]5C)c4)CC3)c2n1 [Example 196, N-((1s,4s)-4-(2-(4′-(((3S,5R)-3,5-dimethylpiperazin-1-yl)methyl)-2′-(((S)-3-methylmorpholino)methyl)biphenyl-3-yloxy)-5-fluoronicotinamido)cyclohexyl)-5,7-dimethylpyrazolo[1,5-a]pyrimidine-3-carboxamide]
0.126 | C[C@@H]1CN(Cc2cc(-c3cccc(Oc4ncc(F)cc4C(=O)N[C@H]4CC[C@@H](NC(=O)c5cc(C(F)(F)F)n(C)n5)CC4)c3)ccc2O)C[C@H](C)N1 [Example 92, 2-(3′-(((3S,5R)-3,5-dimethylpiperazin-1-yl)methyl)-4′-hydroxybiphenyl-3-yloxy)-5-fluoro-N-((1s,4s)-4-(1-methyl-5-(trifluoromethyl)-1H-pyrazole-3-carboxamido)cyclohexyl)nicotinamide]

Source: patent publication US8273774B2, “Phenoxypyridinylamide compounds” (AstraZeneca AB, priority 2008, dated 2012)
